Data as given in patent US20250179051A1, “PYRIMIDINLY-OXY-QUINOLINE BASED HERBICIDAL COMPOUNDS” (SYNGENTA CROP PROTECTION AG, priority 2022, published 2025).

Columns and labels:
Type in all cases: in vivo
Settings in all cases: 250 g/ha, evaluated after 13 days, five-point scale
[1] = system: Amaranthus retoflexus (AMARE); assay: Post-emergence herbicide glasshouse test
In short: (§1)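 Application rate is 250 g/ha unless stated, sprayed from an acetone/water solution with 0.5% Tween 20 onto pot-grown plants either one day after sowing or after eight days' growth. Evaluation of percentage plant damage takes place after 13 days and is reported as 1–5 scores in 20% bands.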

[2] = system: Amaranthus palmeri (AMAPA); assay: Post-emergence herbicide glasshouse test
In short: as §1

[3] = system: Echinochloa crus-galli (ECHCG); assay: Post-emergence herbicide glasshouse test
In short: as §1

[4] = system: Ipomoea hederacea (IPOHE); assay: Post-emergence herbicide glasshouse test
In short: as §1

Setaria faberi (SETFA) [5] = assay: Post-emergence herbicide glasshouse test
In short: as §1

[6] = system: Amaranthus retoflexus (AMARE); assay: Pre-emergence herbicide glasshouse test
In short: as §1

[7] = system: Amaranthus palmeri (AMAPA); assay: Pre-emergence herbicide glasshouse test
In short: as §1

[8] = system: Echinochloa crus-galli (ECHCG); assay: Pre-emergence herbicide glasshouse test
In short: as §1

[9] = system: Ipomoea hederacea (IPOHE); assay: Pre-emergence herbicide glasshouse test
In short: as §1

Setaria faberi (SETFA) [10] = assay: Pre-emergence herbicide glasshouse test
In short: as §1

Structure (SMILES) | percentage damage caused to the plant, AMARE [1] | percentage damage caused to the plant, AMAPA [2] | percentage damage caused to the plant, ECHCG [3] | percentage damage caused to the plant, IPOHE [4] | percentage damage caused to the plant, SETFA (Setaria faberi (SETFA) [5]) | percentage damage caused to the plant, AMARE [6] | percentage damage caused to the plant, AMAPA [7] | percentage damage caused to the plant, ECHCG [8] | percentage damage caused to the plant, IPOHE [9] | percentage damage caused to the plant, SETFA (Setaria faberi (SETFA) [10])
FC(F)(F)c1nc(CCC2CC2)c2c(Oc3ncc(Cl)cn3)ccc(Br)c2n1 [Compound 1.060] | 3 (3=41-60%) | 3 (3=41-60%) | 1 (1=0-20%) | 3 (3=41-60%) | 2 (2=21-40%) | 1 (1=0-20%) | 2 (2=21-40%) | 1 (1=0-20%) | 1 (1=0-20%) | 2 (2=21-40%)
CC(=NOCC1CC1)c1nc(C(F)(F)F)nc2cccc(Oc3ncc(Cl)cn3)c12 [Compound 1.065] | 2 (2=21-40%) | 2 (2=21-40%) | 1 (1=0-20%) | 1 (1=0-20%) | 1 (1=0-20%) | 1 (1=0-20%) | 1 (1=0-20%) | 1 (1=0-20%) | 1 (1=0-20%) | 1 (1=0-20%)
CON=C(C)c1nc(C(F)(F)F)nc2cccc(Oc3ncc(Cl)cn3)c12 [Compound 1.066] | 1 (1=0-20%) | 2 (2=21-40%) | 1 (1=0-20%) | 1 (1=0-20%) | 1 (1=0-20%) | 1 (1=0-20%) | 4 (4=61-80%) | 1 (1=0-20%) | 1 (1=0-20%) | 1 (1=0-20%)
C=CCON=CCCc1nc(C(F)(F)F)nc2cccc(Oc3ncc(Cl)cn3)c12 [Compound 1.067] | 4 (4=61-80%) | 5 (5=81-100%) | 4 (4=61-80%) | 3 (3=41-60%) | 5 (5=81-100%) | 3 (3=41-60%) | 5 (5=81-100%) | 5 (5=81-100%) | 1 (1=0-20%) | 5 (5=81-100%)
FC(F)(F)c1nc(CCC=NOCC2CC2)c2c(Oc3ncc(Cl)cn3)cccc2n1 [Compound 1.068] | 5 (5=81-100%) | 5 (5=81-100%) | 5 (5=81-100%) | 1 (1=0-20%) | 5 (5=81-100%) | 4 (4=61-80%) | 5 (5=81-100%) | 3 (3=41-60%) | 1 (1=0-20%) | 5 (5=81-100%)
FC(F)(F)c1nc(-c2ncccn2)c2c(Oc3ncc(Cl)cn3)cccc2n1 [Compound 1.069] | 1 (1=0-20%) | 1 (1=0-20%) | 1 (1=0-20%) | 1 (1=0-20%) | 1 (1=0-20%) | 1 (1=0-20%) | 1 (1=0-20%) | 1 (1=0-20%) | 1 (1=0-20%) | 1 (1=0-20%)
O=C(c1ccc(Cl)cn1)c1nc(C(F)(F)F)nc2cccc(Oc3ncc(Cl)cn3)c12 [Compound 1.070] | 2 (2=21-40%) | 1 (1=0-20%) | 1 (1=0-20%) | 1 (1=0-20%) | 1 (1=0-20%) | 5 (5=81-100%) | 5 (5=81-100%) | 1 (1=0-20%) | 1 (1=0-20%) | 1 (1=0-20%)
FC(F)(F)CCC(Br)c1nc(C(F)(F)F)nc2cccc(Oc3ncc(Cl)cn3)c12 (centres unmarked) [Compound 1.071] | 5 (5=81-100%) | 5 (5=81-100%) | 5 (5=81-100%) | 3 (3=41-60%) | 4 (4=61-80%) | 5 (5=81-100%) | 5 (5=81-100%) | 5 (5=81-100%) | 1 (1=0-20%) | 5 (5=81-100%)
